In patent US9562035B2, “Benzamide derivative useful as FASN inhibitors for the treatment of cancer” (Janssen Pharmaceutica NV, priority 2013, dated 2017):

How the values were obtained:
[1] = target: T1, FASN Keto-reductase Domain (Homo sapiens, UniProt P49327); experiment: Fatty Acid Synthase Keto-Reductase Domain (FASN KR) Inhibition; type: biochemical; conditions: mean where tested more than once; read-out: FASN K-R Domain pIC50 (converted)
T1 construct: 10 μL hFASN enzyme (full length, 300 ng, purified in house) and 360 μM NADPH; made in house
T1 sequence (P49327 whole entry, the tested form may be a part): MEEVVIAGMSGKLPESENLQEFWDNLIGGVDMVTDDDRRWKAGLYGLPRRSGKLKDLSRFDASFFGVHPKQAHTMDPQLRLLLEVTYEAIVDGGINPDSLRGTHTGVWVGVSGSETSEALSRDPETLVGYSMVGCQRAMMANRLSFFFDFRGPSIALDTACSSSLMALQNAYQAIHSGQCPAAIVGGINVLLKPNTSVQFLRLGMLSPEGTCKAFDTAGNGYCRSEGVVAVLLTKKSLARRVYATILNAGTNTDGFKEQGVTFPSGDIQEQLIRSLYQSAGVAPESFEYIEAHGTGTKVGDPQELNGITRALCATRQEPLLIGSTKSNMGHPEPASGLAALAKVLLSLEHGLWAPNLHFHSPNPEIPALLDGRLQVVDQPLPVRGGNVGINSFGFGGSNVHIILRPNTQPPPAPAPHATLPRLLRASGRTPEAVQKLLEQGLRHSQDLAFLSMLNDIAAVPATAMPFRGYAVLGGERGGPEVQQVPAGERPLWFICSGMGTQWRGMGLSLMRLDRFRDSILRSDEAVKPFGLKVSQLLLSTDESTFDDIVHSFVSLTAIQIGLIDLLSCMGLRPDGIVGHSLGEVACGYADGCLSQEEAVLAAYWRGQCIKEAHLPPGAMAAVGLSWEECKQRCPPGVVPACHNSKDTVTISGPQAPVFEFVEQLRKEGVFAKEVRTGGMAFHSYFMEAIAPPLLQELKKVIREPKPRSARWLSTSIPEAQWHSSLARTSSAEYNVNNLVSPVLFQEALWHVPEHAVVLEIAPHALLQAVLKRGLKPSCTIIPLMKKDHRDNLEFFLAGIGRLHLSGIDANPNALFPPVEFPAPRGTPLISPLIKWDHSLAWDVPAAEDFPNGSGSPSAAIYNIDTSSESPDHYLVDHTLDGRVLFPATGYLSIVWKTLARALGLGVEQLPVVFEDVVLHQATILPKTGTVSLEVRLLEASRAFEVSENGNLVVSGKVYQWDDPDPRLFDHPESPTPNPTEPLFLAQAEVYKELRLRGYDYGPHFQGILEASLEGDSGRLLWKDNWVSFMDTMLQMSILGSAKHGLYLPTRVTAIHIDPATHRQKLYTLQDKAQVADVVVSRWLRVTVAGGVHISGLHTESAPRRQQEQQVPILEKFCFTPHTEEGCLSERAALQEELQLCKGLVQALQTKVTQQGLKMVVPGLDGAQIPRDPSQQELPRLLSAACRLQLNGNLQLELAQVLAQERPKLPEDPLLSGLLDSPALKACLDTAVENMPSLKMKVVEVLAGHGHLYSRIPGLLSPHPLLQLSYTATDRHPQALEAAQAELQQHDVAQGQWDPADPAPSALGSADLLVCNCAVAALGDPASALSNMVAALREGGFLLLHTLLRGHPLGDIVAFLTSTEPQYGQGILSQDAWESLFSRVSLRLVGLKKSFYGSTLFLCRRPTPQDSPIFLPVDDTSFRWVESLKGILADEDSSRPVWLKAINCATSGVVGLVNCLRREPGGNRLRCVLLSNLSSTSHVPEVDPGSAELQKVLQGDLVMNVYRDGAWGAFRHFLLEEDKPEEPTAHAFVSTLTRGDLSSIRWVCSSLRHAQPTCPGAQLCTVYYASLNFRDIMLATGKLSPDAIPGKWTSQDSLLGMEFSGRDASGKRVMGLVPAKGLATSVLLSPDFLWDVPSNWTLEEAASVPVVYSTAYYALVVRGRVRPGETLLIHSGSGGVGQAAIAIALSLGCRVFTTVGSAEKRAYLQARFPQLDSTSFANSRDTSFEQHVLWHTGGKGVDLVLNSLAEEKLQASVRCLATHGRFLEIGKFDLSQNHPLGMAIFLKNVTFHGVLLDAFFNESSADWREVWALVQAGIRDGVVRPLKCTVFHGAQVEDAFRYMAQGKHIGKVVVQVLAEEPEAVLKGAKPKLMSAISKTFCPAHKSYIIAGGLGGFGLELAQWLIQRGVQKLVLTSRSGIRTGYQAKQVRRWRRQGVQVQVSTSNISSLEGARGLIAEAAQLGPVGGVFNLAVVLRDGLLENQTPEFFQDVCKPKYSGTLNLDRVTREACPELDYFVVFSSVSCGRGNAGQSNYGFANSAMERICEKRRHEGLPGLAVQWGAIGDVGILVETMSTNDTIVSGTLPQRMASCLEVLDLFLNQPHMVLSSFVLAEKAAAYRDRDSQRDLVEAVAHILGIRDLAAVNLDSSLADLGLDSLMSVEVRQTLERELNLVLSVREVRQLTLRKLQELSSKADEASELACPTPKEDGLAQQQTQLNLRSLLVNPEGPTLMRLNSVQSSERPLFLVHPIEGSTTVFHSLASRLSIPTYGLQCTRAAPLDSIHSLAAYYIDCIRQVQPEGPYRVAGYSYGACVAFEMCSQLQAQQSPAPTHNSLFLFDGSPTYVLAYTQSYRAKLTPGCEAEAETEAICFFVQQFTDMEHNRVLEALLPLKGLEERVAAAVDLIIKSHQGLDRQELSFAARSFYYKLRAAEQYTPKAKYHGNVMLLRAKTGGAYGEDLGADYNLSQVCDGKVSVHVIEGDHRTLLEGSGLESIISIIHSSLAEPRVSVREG
Summary of the method: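 Keto-reductase activity followed as NADPH consumption (A340 drop between 0 and 20 min, room temperature) using in-house full-length hFASN, 360 μM NADPH and ethyl acetoacetate substrate (180 mM stock), pH 7.5 phosphate buffer.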

[2] = test system: A2780 ovarian cells; experiment: A2780 Ovarian Cell Proliferation Assay in Lipid Reduced Medium, with Palmitate (control); type: cell-based; conditions: Homo sapiens, A2780; lipid reduced medium, 25 μM palmitate, 96 h, MTT; read-out: Proliferation A2780 with Palmitate pIC50 (converted)
Summary of the method: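 Read-out was MTT absorbance at 544 nm after 96 h at 37 °C. Cells grown overnight in RPMI1640/10% FCS were moved to 10% lipid-reduced serum with compound plus palmitate (final 25 μM, 0.2% fatty-acid-free BSA, 0.2% DMSO). IC50 came from least-squares curve fitting, expressed as −log(IC50).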

[3] = target: T2, hFASN enzyme (full length) (Homo sapiens, UniProt P49327); experiment: Fatty Acid Synthase (FASN) Inhibition Scintillation Proximity Assay; type: biochemical; conditions: for IC50: mean where tested more than once, ~ = standard error of pIC50 larger than 0.5; for inhibition at 10 µM: read-out: FASN % Effect @1E−05M
T2 construct: 10 μL hFASN enzyme (full length, 300 ng, purified in house); made in house
T2 sequence (P49327 whole entry): as the sequence (P49327 whole entry, the tested form may be a part) above
Summary of the method: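 Eight compound concentrations (0.01–30 μM) tested in pH 7.5 phosphate buffer with DTT; human full-length enzyme converted [3H]-acetyl-CoA plus malonyl-CoA, with NADPH, over 60 min at room temperature. Hydrophobic [3H]-palmitate detected by bead proximity scintillation imaging; control-normalised data fitted for IC50/pIC50.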

[4] = test system: A2780 ovarian cells; experiment: A2780 Ovarian Cell Proliferation Assay in Lipid Reduced Medium, without Palmitate; type: cell-based; conditions: Homo sapiens, A2780; lipid reduced medium, without palmitate, 96 h, MTT; read-out: Proliferation A2780 w/o Palmitate pIC50 (converted)
Summary of the method: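 A2780 cells were seeded in 10% FCS medium and switched next day to 10% lipid-reduced serum without palmitate. Compounds at 0.01–30 μM were added with 0.2% DMSO, 0.2% fatty-acid-free BSA and 0.25% ethanol final. After 96 h, MTT absorbance at 544 nm was normalized to plate controls, and IC50/pIC50 came from a 4-parameter logistic fit.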

Compound | IC50 [1] [nM] | IC50 [2] [nM] | IC50 [3] [nM] | inhibition at 10 µM [3] [%] | IC50 [4] [nM]
Cc1ccc(C(=O)N2CCC(c3ncc(-c4cnn(C)c4)cn3)CC2)cc1NC(=O)c1ccc(NC(C)C)nc1 [Compound 258, 6-(isopropylamino)-N-(2-methyl-5-(4-(5-(1-methyl-1H-pyrazol-4-yl)pyrimidin-2-yl)piperidine-1-carbonyl)phenyl)nicotinamide] | 1230 | > 10000 | 245 | 99 | 389
Cc1ccc(C(=O)N2CC(c3ccc(-c4cccnc4N)cc3)C2)cc1NC(=O)c1ccc(Cl)nc1 [Compound 259, N-(5-(3-(4-(2-aminopyridin-3-yl)phenyl)azetidine-1-carbonyl)-2-methylphenyl)-6-chloronicotinamide] | 355 | > 10000 | 56.2 | 103 | ~85.1
Cc1ccc(C(=O)N2CC(c3ccc(-c4cccnc4N)cc3)C2)cc1NC(=O)c1ccc(N2CCOCC2)nc1 [Compound 260, N-(5-(3-(4-(2-aminopyridin-3-yl)phenyl)azetidine-1-carbonyl)-2-methylphenyl)-6-morpholinonicotinamide] | 102 | > 10000 | 25.1 | 112 | 34.7
Cc1ccc(C(=O)N2CCC(c3ccc(-c4cnn(-c5cccnc5)c4)cc3)CC2)cc1NC(=O)c1ccc(NC(C)C)nc1 [Compound 261, 6-(isopropylamino)-N-(2-methyl-5-(4-(4-(1-(pyridin-3-yl)-1H-pyrazol-4-yl)phenyl)piperidine-1-carbonyl)phenyl)nicotinamide] | 126 | 3310 | 60.3 | 107 | 112
Cn1cc(-c2ccc(C3CCN(C(=O)c4ccc(OCc5ccccc5)c(NC(=O)c5ccc(Cl)nc5)c4)CC3)cc2)cn1 [Compound 262, N-(2-(benzyloxy)-5-(4-(4-(1-methyl-1H-pyrazol-4-yl)phenyl)piperidine-1-carbonyl)phenyl)-6-chloronicotinamide] | 1050 | > 10000 | 263 | 89 | 617
Cc1ccc(C(=O)N2CCC(c3ccc(-c4cnn(C)c4)cn3)CC2)cc1NC(=O)c1ccc(Cl)nc1 [Compound 263, 6-chloro-N-(2-methyl-5-(4-(5-(1-methyl-1H-pyrazol-4-yl)pyridin-2-yl)piperidine-1-carbonyl)phenyl)nicotinamide] | 479 | > 10000 | 91.2 | 111 | 170
Cc1ccc(C(=O)N2CCC(c3ccc(-c4cnn(C)c4)cn3)CC2)cc1NC(=O)c1ccc(NC(C)C)nc1 [Compound 264, 6-(isopropylamino)-N-(2-methyl-5-(4-(5-(1-methyl-1H-pyrazol-4-yl)pyridin-2-yl)piperidine-1-carbonyl)phenyl)nicotinamide] | 219 | > 10000 | 58.9 | 109 | 87.1
Cc1ccc(C(=O)N2CC(c3ccc(-c4ccncc4N)cc3)C2)cc1NC(=O)c1ccc(N2CCOCC2)nc1 [Compound 265, N-(5-(3-(4-(3-aminopyridin-4-yl)phenyl)azetidine-1-carbonyl)-2-methylphenyl)-6-morpholinonicotinamide] | 60.3 | > 10000 | 21.9 | 110 | 20.9
Cc1ccc(C(=O)N2CC(c3ccc(-c4ccncc4N)cc3)C2)cc1NC(=O)c1ccc(Cl)nc1 [Compound 266, N-(5-(3-(4-(3-aminopyridin-4-yl)phenyl)azetidine-1-carbonyl)-2-methylphenyl)-6-chloronicotinamide] | 107 | > 10000 | 38 | 112 | ~41.7
Cc1ccc(C(=O)N2CCC(c3ccc(-c4cnn(CCO)c4)cc3)CC2)cc1NC(=O)c1ccc(NC(C)C)nc1 [Compound 267, N-(5-(4-(4-(1-(2-hydroxyethyl)-1H-pyrazol-4-yl)phenyl)piperidine-1-carbonyl)-2-methylphenyl)-6-(isopropylamino)nicotinamide] | 58.9 | > 10000 | 25.7 | 112 | ~22.4
Cc1ccc(C(=O)N2CCC(c3ccc(-c4cnn(C)c4)nc3)CC2)cc1NC(=O)c1ccc(NC(C)C)nc1 [Compound 268, 6-(isopropylamino)-N-(2-methyl-5-(4-(6-(1-methyl-1H-pyrazol-4-yl)pyridin-3-yl)piperidine-1-carbonyl)phenyl)nicotinamide] | 1350 | > 10000 | 166 | 104 | 537
CC(C)Nc1ccc(C(=O)Nc2cc(C(=O)N3CCC(c4ccc(-c5cnn(C)c5)cc4)CC3)ccc2O)cn1 [Compound 269, N-(2-hydroxy-5-(4-(4-(1-methyl-1H-pyrazol-4-yl)phenyl)piperidine-1-carbonyl)phenyl)-6-(isopropylamino)nicotinamide] | 257 | 7240 | 69.2 | 107 | 316
Cc1ccc(C(=O)N2CCC(c3ccc(-c4cnn(C)c4)nc3)CC2)cc1NC(=O)c1ccc(Cl)nc1 [Compound 270, 6-chloro-N-(2-methyl-5-(4-(6-(1-methyl-1H-pyrazol-4-yl)pyridin-3-yl)piperidine-1-carbonyl)phenyl)nicotinamide] | 2750 | > 10000 | 589 | 93 | 1480
CC(C)Nc1ccc(C(=O)Nc2cc(C(=O)N3CCC(c4ccc(-c5cnn(C)c5)cc4)CC3)ccc2OCc2ccccc2)cn1 [Compound 271, N-(2-(benzyloxy)-5-(4-(4-(1-methyl-1H-pyrazol-4-yl)phenyl)piperidine-1-carbonyl)phenyl)-6-(isopropylamino)nicotinamide] | 537 | > 10000 | 100 | 101 | 490
Cc1ccc(C(=O)N2CCC(c3ccc(-c4cnn(-c5ccncc5)c4)cc3)CC2)cc1NC(=O)c1ccc(NC(C)C)nc1 [Compound 272, 6-(isopropylamino)-N-(2-methyl-5-(4-(4-(1-(pyridin-4-yl)-1H-pyrazol-4-yl)phenyl)piperidine-1-carbonyl)phenyl)nicotinamide] | 105 | 1380 | 29.5 | 112 | 43.7
Cc1ccc(C(=O)N2CCC(c3ccc(-n4ccnc4)cc3)C(C)(C)C2)cc1NC(=O)c1ccc(Cl)nc1 (stereo not shown) [Compound #6, N-(5-(4-(4-(1H-imidazol-1-yl)phenyl)-3,3-dimethylpiperidine-1-carbonyl)-2-methylphenyl)-6-chloronicotinamide] | 89.1 | > 10000 | 61.7 | 104 | 234
Cc1ccc(C(=O)N2CCC(c3ccc(-n4ccnc4)cc3)CC2)cc1NC(=O)c1ccc(Cl)nc1 [Compound #11, N-(5-(4-(4-(1H-imidazol-1-yl)phenyl)piperidine-1-carbonyl)-2-methylphenyl)-6-chloronicotinamide] | 49 | > 10000 | 27.5 | 106 | 56.2
Cc1ccc(C(=O)N2CCC(c3ccc(-n4ccnc4)cc3)CC2)cc1NC(=O)c1ccc(NC(C)C)nc1 [Compound #15, N-(5-(4-(4-(1H-imidazol-1-yl)phenyl)piperidine-1-carbonyl)-2-methylphenyl)-6-(isopropylamino)nicotinamide] | 37.2 | > 15100 | 22.9 | 109 | ~47.9
Cc1ccc(C(=O)N2CC(c3ccc(-c4ccc5cnn(C)c5c4)cc3)C2)cc1NC(=O)c1ccc(NC(C)C)nc1 [Compound #36, 6-(isopropylamino)-N-(2-methyl-5-(3-(4-(1-methyl-1H-indazol-6-yl)phenyl)azetidine-1-carbonyl)phenyl)nicotinamide] | 27.5 | 2190 | 43.7 | 106 | ~74.1
Cc1ccc(C(=O)N2CCC(c3ccc(-n4ccnc4)cc3)C(C)(C)C2)cc1NC(=O)c1ccc(NC(C)C)nc1 (stereo not shown) [Compound #43, N-(5-(4-(4-(1H-imidazol-1-yl)phenyl)-3,3-dimethylpiperidine-1-carbonyl)-2-methylphenyl)-6-(isopropylamino)nicotinamide] | 69.2 | > 10000 | 44.7 | 106 | 132
